Experimental data from PMC5154303, “Flavonol and imidazole derivatives block HPV16 E6 activities and reactivate apoptotic pathways in HPV^+ cells” (Cell Death & Disease, 2016).
Like-named read-outs stand apart in the source and are kept apart here.

Tests used:
GST-E6/His-caspase 8 = target: T1, GST-E6/His-caspase 8 (Human papillomavirus type 16, UniProt P03126); experiment: AlphaScreen bead-based binding assay GST-E6/His-caspase 8; parameters: species or system HPV 16; conditions: for EC50 for GST-E6/His-caspase 8 interaction: bead-based assay, 1.4 μM–3.2 mM tested
T1 construct: made in house
T1 sequence (P03126 whole entry): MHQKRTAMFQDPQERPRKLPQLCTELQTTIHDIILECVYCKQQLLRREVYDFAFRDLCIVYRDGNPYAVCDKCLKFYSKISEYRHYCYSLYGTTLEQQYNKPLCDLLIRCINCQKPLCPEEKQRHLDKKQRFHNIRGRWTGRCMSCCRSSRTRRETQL
Method: (§1) Figure 2 3-(1H-indol-1yl)propan-1-amine (1), three benzimidazole derivatives (2–4), and spinacine (5) inhibit protein–protein interactions. Five compounds at the indicated concentrations (1.4 μM–3.2 mM) were tested using our bead-based screening assay for their ability to inhibit three different protein/protein interactions: (a) GST-E6/His-caspase 8; (b) GST-E6/HisE6AP; and (c) GST-caspase 8/His-caspase 8. Binding in the presence of 1.4 μM of the test compound was set at 100%. Experiments were performed in triplicate, and error bars indicate the S.D.
(§2) The construction of the pGEX-E6, pTriEx-E6AP, and pTriEx-Caspase-8 DED plasmids has been reported.[33] Expression and purification of GSTE6, His-E6AP, and His-Caspase-8 DED were carried out as previously described.[33], [37] GST-tagged and His-tagged proteins were diluted into GST dilution buffer (PBS pH 8.0, 5% glycerol, 2 mM DTT) and His dilution buffer (20 mM Hepes pH 7.4, 150 mM NaCl, 2 mMKCl, 5% glycerol, 2 mM DTT), respectively. Protein concentration was measured using Coomassie Plus – The Better Bradford Assay Reagent (Thermo Scientific, Waltham, MA, USA). Purity of the isolated proteins was estimated following separation by sodium dodecyl sulfate-polyacrylamide gel electrophoresis (SDS-PAGE) and Coomassie staining.
(§3) AlphaScreen Technology was used to assess the interactions between GST-E6, GST-caspase 8, His-E6AP, and His-caspase 8. Binding assays were performed in white 384-well plates (Perkin-Elmer) in a total volume of 25 μl as previously described.[33] Briefly, 5 μl (50 ng) of GST-E6 and 5 μl (87.5 ng) of His-caspase 8 were included in each reaction mixture with 5 μl blocking buffer (0.5 mg BSA, 0.5% Tween 20 in PBS) in the absence or presence of 10 μM of each test chemical. Members of the library were present at 10 μM in DMSO. After a 1-h incubation of the mixture at room temperature, 5 μl donor beads and 5 μl acceptor beads (Perkin-Elmer) were added to each well according to the manufacturer's protocol. The mixture was incubated in the dark at room temperature overnight, and the emitted signal was detected using the Envision Multilabel plate reader (Perkin-Elmer). In the presence of test chemicals, the binding affinity was calculated as a percentage of the binding in the presence of carrier only (DMSO).

[1] = target: GST-caspase 8/His-caspase 8 (Homo sapiens, UniProt Q14790); experiment: AlphaScreen counter-screen GST-caspase 8/His-caspase 8; assay type: binding
Chain of GST-caspase 8/His-caspase 8 (Q14790 1-184): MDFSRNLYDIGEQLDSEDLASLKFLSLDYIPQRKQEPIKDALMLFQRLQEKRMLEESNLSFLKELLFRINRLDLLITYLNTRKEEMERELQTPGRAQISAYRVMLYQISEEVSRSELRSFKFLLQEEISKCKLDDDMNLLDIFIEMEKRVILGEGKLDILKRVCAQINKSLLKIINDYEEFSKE
Method: as §1
To ask whether this inhibition was specific, we employed a counter-screening assay in which we assessed the ability of candidates to inhibit the binding of GST-caspase 8 to His-caspase 8; those that did were to be eliminated. In this counter-screening assay, the materials in each well were the same as in the primary screen, with the exception that GST-caspase 8 replaced GST-E6.
as §3

GST-E6/His-E6AP = target: T2, GST-E6/His-E6AP (Human papillomavirus type 16, UniProt P03126); experiment: AlphaScreen bead-based binding assay GST-E6/His-E6AP; parameters: species or system HPV 16; conditions: for EC50 for GST-E6/His-E6AP interaction: bead-based assay, 1.4 μM–3.2 mM tested
T2 construct: made in house
T2 sequence (P03126 whole entry): as the sequence (P03126 whole entry) above
Method: as §1, §2, §3

SiHa cells = experiment: TRAIL-induced apoptosis in SiHa cells (MTT); assay type: cell-based, human; conditions: SiHa cells, compound 4 h prior to TRAIL 100 ng/ml + cycloheximide 5 μg/ml, overnight, MTT
Method: Figure 3 (a) HPV^+ SiHa cells are resistant to TRAIL-induced apoptosis as compared with the human osteosarcoma cell line U2OS. Cells (2 × 10^4 cells per well) were seeded into a 96-well plate, allowed to incubate overnight, and then treated with the indicated concentration of TRAIL in the presence of cycloheximide (5 μg/ml). The viability of cells was measured after overnight incubation using the MTT assay; the viability of cells untreated with TRAIL was set at 100% for each group. (b) The indicated concentrations of three small molecules were added to SiHa cells, and an MTT assay was preformed after overnight incubation. The viability of cells untreated with small molecules was set as 100%. (c) The indicated concentrations of myricetin or spinacine were added 4 h prior to TRAIL (100 ng/ml) in the presence of cycloheximide (5 μg/ml) and incubated at 37 °C overnight. The viability of cells untreated with small molecules was set at 100%. (d and e) SiHa cells (2 × 10^4 cells per well) were seeded into a 96-well plate and allowed to incubate overnight. In all, 100 μM of myricetin and 50 μM of spinacine were added 4 h prior to either (d) doxorubicin or (e) cisplatin. Cell viability was measured after overnight incubation using the MTT assay, and the viability of cells untreated with either myricetin or spinacine was set at 100%. Experiments were performed in triplicate, and error bars indicate the S.D.
Figure 5 Myricetin and spinacine (5) can re-sensitize HPV^+, but not HPV^−, cells to treatment with TRAIL. SiHa (2 × 10^4 cells per well) and C33A cells (1 × 10^4 cells per well) were seeded into a 96-well plate and allowed to incubate overnight, and then cells were pretreated in the presence or absence of (a) myricetin (100 μM) or (b) spinacine (50 μM) for 4 h. The indicated concentration of TRAIL along with cycloheximide (5 μg/ml) was added, and the cells were allowed to incubate overnight. Cell viability was measured by MTT assay, and the viability of cells untreated with TRAIL was set at 100%. Experiments were performed in triplicate, and error bars indicate the S.D.
The extracellular domain of human TRAIL was cloned into a pTriEx expression plasmid containing N-terminal Hisx6 tag. His-TRAIL was expressed in the E. coli BL-21 pLys strain and purified as previously described. Doxorubicin and cisplatin were purchased from Sigma. His-TRAIL, doxorubicin, and cisplatin were diluted in PBS to the desired concentration before using. To measure cell survival following treatment with TRAIL, cisplatin and doxorubicin, SiHa (2 × 10^4/well), C33A (1 × 10^4/well), and HNSCC cells (2 × 10^4/well) were seeded into 96-well plates and allowed to adhere overnight. Small molecules at the desired concentration were added and incubated at 37 °C for 4 h. As indicated, TRAIL, cisplatin, or doxorubicin was then added. The TRAIL treatment group contained cycloheximide (5 μg/ml) to inhibit de novo protein synthesis, and the cells were incubated for 16 h prior to measuring cell viability by the MTT assay preformed as described previously.[38] All experiments were repeated at least three times (three biological replicates, carried out on different days), with each experimental group measured in triplicate within each of these individual experiments. Data presented are from a representative experiment.

[2] = counter-screen, bead-based assay, 1.4 μM–3.2 mM tested

Work on c1ccc2[nH]cnc2c1 [compound 2, benzimidazole] yielded an EC50 (GST-E6/His-caspase 8) of 1040 µM, an EC50 [1] of 1050 µM and an EC50 (GST-E6/His-E6AP) of 1480 µM.

OCn1cnc2ccccc21 [compound 3, 1H-benzimidazole-1-methanol] was tested, and the “EC50 for GST-E6/His-caspase 8 interaction” value (GST-E6/His-caspase 8) was “No Inhibition”, the “EC50 for GST-caspase 8/His-caspase 8 interaction” value [1, 2] was “No Inhibition” and the “EC50 for TRAIL-induced apoptosis” value (SiHa cells) was “No sensitization”. For the same compound, the “EC50 for GST-E6/His-E6AP interaction” value (GST-E6/His-E6AP) was “No Inhibition”.

NCCCn1ccc2ccccc21 [compound 1, 3-(1H-indol-1-yl)propan-1-amine methanesulfonate] was tested, and the EC50 (GST-E6/His-caspase 8) was 630 µM, the EC50 ([1]; counter-screen, bead-based assay, 1.4 μM–3.2 mM tested, read-out: EC50 for GST-caspase 8/His-caspase 8 interaction) was 830 µM and the EC50 (GST-E6/His-E6AP) was 670 µM.

In the case of COCc1nc2ccccc2[nH]1 [compound 4, 2-(methoxymethyl)-1H-benzimidazole], the “EC50 for GST-E6/His-caspase 8 interaction” value (GST-E6/His-caspase 8) is reported as “No inhibition”, the “EC50 for GST-caspase 8/His-caspase 8 interaction” value [1, 2] is reported as “No inhibition” and the “EC50 for GST-E6/His-E6AP interaction” value (GST-E6/His-E6AP) is reported as “No inhibition”.
